Calls of active or inactive are those of the source. The rule behind the calls is not given here.

For 25 compounds, inhibition results are on record in ChEMBL document CHEMBL3301458, “MMV Malaria Box hERG screening”.

Series [1] addresses T1, hERG (Kv11.1, KCNH2) (Homo sapiens, UniProt Q12809). Kind of series: in vitro.
Description: MMV: Malaria Box compounds were tested for inhibition of the human ether a go-go related gene (hERG), Kv11.1 channel, using IonWorks 384-well patch clamp electrophysiology at 1.1uM (3 independent assay plates up to 12 cells per concentration).
The target in series [2] is T1, hERG (Kv11.1, KCNH2). Kind of series: in vitro. The source holds these as a separate data set.
Description: MMV: Malaria Box compounds were tested for inhibition of the human ether a go-go related gene (hERG), Kv11.1 channel, using IonWorks 384-well patch clamp electrophysiology at 11.1uM (3 independent assay plates up to 12 cells per concentration).

T1 sequence (Q12809 whole entry): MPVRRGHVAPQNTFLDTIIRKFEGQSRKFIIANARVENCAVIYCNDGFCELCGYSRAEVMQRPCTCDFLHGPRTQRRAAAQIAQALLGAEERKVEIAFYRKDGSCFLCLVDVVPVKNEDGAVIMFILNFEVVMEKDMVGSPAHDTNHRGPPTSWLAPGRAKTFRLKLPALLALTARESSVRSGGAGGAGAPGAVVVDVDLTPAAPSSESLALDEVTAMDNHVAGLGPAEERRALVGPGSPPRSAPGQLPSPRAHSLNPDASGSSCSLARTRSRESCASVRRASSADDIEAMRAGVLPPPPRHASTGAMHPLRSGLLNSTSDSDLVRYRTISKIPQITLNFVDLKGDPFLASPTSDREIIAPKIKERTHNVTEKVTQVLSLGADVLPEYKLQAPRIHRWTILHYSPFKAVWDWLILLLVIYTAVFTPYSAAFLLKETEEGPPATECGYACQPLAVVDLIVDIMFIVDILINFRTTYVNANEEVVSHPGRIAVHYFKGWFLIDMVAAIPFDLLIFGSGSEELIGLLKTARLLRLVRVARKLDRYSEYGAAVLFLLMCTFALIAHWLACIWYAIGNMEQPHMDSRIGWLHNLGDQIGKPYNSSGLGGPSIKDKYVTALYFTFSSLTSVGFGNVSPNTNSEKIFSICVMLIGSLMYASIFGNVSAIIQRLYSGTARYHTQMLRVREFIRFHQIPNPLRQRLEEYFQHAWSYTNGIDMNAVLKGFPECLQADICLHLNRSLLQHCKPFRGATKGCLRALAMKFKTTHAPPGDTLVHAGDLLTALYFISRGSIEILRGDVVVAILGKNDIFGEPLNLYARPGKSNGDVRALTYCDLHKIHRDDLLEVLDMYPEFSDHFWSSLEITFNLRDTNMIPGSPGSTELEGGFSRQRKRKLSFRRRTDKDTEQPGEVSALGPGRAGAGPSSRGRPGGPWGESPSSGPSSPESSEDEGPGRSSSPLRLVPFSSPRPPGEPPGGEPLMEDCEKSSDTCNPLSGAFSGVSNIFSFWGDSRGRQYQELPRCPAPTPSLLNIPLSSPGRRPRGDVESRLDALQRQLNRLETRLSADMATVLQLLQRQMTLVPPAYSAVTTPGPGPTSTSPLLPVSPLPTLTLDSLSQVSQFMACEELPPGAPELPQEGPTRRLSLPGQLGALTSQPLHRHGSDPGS

As to `CN(C)CCCNc1c2ccccc2nc2ccccc12`, the inhibition at 1.1 µM in series [1] came out at 5%. Moreover, the inhibition at 11.1 µM in series [2] was determined as 31%.

Turning to `CCN(CC)CCn1c(=N)n(CC(O)c2ccc(Cl)c(Cl)c2)c2ccccc21` (stereo not given), the inhibition at 1.1 µM in series [1] turned out to be 36%. Besides, in series [2], the inhibition at 11.1 µM is 86% (active).

As to `COc1ccc(NC(=O)C2c3ccccc3C(=O)N(CC(C)C)C2c2cccs2)cc1Cl` (stereo not given), in series [1], the inhibition at 1.1 µM is 0%. Moreover, the inhibition at 11.1 µM in series [2] is 24% (inactive).

For the compound `CCOc1cc2c(cc1OCC)C(c1cc(Cl)ccc1O)NCC2` (stereo not given), the inhibition at 1.1 µM in series [1] came to 1%. Besides, the inhibition at 11.1 µM in series [2] was 20% (inactive).

In the case of `CCOc1cc2c(cc1OCC)C(c1cc(C)c(O)c(C)c1)NCC2` (stereo not given), the inhibition at 1.1 µM in series [1] is 13%. Also, the inhibition at 11.1 µM in series [2] amounted to 36%.

For the compound `Cc1ccc2nc(C)cc(Nc3cccc(C(F)(F)F)c3)c2c1`, the inhibition at 1.1 µM in series [1] worked out at 48%. For the same compound, the inhibition at 11.1 µM in series [2] is 106% (active).

`COc1ccccc1CNC(=O)C1c2ccccc2C(=O)N(CC(C)C)C1c1cccs1` (stereo not given): the inhibition at 1.1 µM in series [1] was -15%. Also, the inhibition at 11.1 µM in series [2] is 17% (inactive).

In the case of `CCOc1cc2c(cc1OCC)C(c1cc(Cl)c(O)c(OCC)c1)NCC2` (stereo not given), the inhibition at 1.1 µM in series [1] was found to be 1%. Moreover, the inhibition at 11.1 µM in series [2] was 57% (active).

On to `CCc1ccc(Nc2cc(C)c3ccc(O)cc3n2)cc1`, for which the inhibition at 1.1 µM in series [1] came to 15%. Further, in series [2], the inhibition at 11.1 µM was 78% (active).

Consider `CCN(CC)c1cc(C)c2cc(NC(=O)c3cccc(OC)c3)ccc2n1`, for which the inhibition at 1.1 µM in series [1] stood at 85%. In addition, the inhibition at 11.1 µM in series [2] stood at 103%.

In the case of `COc1ccc(C(O)(CCC(C)C)C(CN2CCOCC2)c2ccc(Cl)cc2)cc1` (stereo not given), the inhibition at 1.1 µM in series [1] was determined as 4%. Besides, the inhibition at 11.1 µM in series [2] is 109% (active).

`CCCCCCn1c(=N)n(CC(O)COc2cccc(C)c2)c2ccccc21` (stereo not given): the inhibition at 1.1 µM in series [1] came to 57%. Moreover, the inhibition at 11.1 µM in series [2] was 111%.

Regarding `Oc1ccc(Br)cc1CN1CCN(Cc2cccc(F)c2)CC1`, the inhibition at 1.1 µM in series [1] was -1%. Moreover, in series [2], the inhibition at 11.1 µM is 18% (inactive).

Consider `COc1ccc(-c2cc(=O)oc3c4c(ccc23)OCN(Cc2ccc(F)cc2)C4)cc1`, for which, in series [1], the inhibition at 1.1 µM came to 24%. In addition, in series [2], the inhibition at 11.1 µM was 16% (inactive).

In the case of `CC(O)(c1ccc(Cl)cc1)C(CN1CCCCC1)c1ccccc1` (stereo not given), the inhibition at 1.1 µM in series [1] was 40%. The inhibition at 11.1 µM in series [2] is 84% (active).

`CCn1c2c(c(=N)c3c1CCC3)CCCC2`: the inhibition at 1.1 µM in series [1] was 48%. The inhibition at 11.1 µM in series [2] is 104% (active).

Turning to `CCOc1ccc2c(c1)CN(Cc1ccc(Cl)cc1)CO2`, the inhibition at 1.1 µM in series [1] stood at 33%. Besides, the inhibition at 11.1 µM in series [2] is 99% (active).

Regarding `CC(C)(C)c1ccc2c(c1)CN(Cc1ccc(Cl)cc1)CO2`, the inhibition at 1.1 µM in series [1] stood at 25%. Besides, in series [2], the inhibition at 11.1 µM is 12% (inactive).

Turning to `CCCCC(O)(c1ccc(Cl)cc1)C(CN1CCOCC1)c1ccc(Cl)cc1` (stereo not given), the inhibition at 1.1 µM in series [1] was found to be 18%. Further, the inhibition at 11.1 µM in series [2] was 35%.

Turning to `CCOc1ccc(Nc2c3ccccc3nc3ccccc23)cc1`, the inhibition at 1.1 µM in series [1] amounted to 68%. Further, the inhibition at 11.1 µM in series [2] came out at 112%.

Take `COc1ccc(C2Sc3ccccc3N=C3C2=C(O)c2ccccc23)cc1` (stereo not given): the inhibition at 1.1 µM in series [1] was -2%. For the same compound, the inhibition at 11.1 µM in series [2] was 26%.

For `CCCCCCC(O)(c1ccc(F)cc1)C(CN1CCOCC1)c1ccccc1` (stereo not given), in series [1], the inhibition at 1.1 µM was determined as 0%. Besides, in series [2], the inhibition at 11.1 µM was 71% (active).

With `CCCN(CCC)CCCNC(=O)c1cc2c(-c3ccc(OC)c(OC)c3)nn(C)c2s1`, the inhibition at 1.1 µM in series [1] was determined as 6%. In addition, the inhibition at 11.1 µM in series [2] was 47%.

Regarding `CCCCCn1c(=N)n(CC(O)COc2cccc(C)c2)c2ccccc21` (stereo not given), in series [1], the inhibition at 1.1 µM was 59%. Moreover, the inhibition at 11.1 µM in series [2] was 101%.

`CC1CCCCN1CCCNC(=O)c1ccc2c(c1)sc1nc(-c3ccc(F)cc3)cn12` (stereo not given): in series [1], the inhibition at 1.1 µM is 64%. For the same compound, in series [2], the inhibition at 11.1 µM turned out to be 81%.
